# In ChEMBL document CHEMBL3885881, “DrugMatrix”:
# Organism: Rattus norvegicus
# Test: DrugMatrix - Regimen: Daily Repeat
# Format: toxicity, organism-based, Sprague-Dawley
# Design: regimen Daily Repeat, gender Male, age 6-8 weeks
# Settings: in vivo, po, route oral GAVAGE, vehicle .5 % CMC; for ABSOLUTE BASOPHIL / ABSOLUTE EOSINOPHIL / ABSOLUTE LYMPHOCYTE / ABSOLUTE MONOCYTE / ABSOLUTE SEGMENTED NEUTROPHIL / BASOPHIL / EOSINOPHIL / HEMATOCRIT / LEUKOCYTE COUNT / LYMPHOCYTE / MEAN CORPUSCULAR HEMOGLOBIN / MEAN CORPUSCULAR HEMOGLOBIN CONCENTRATION / MEAN CORPUSCULAR VOLUME / MONOCYTE / NEUTROPHIL / NUCLEATED RED BLOOD CELLS / PLATELET COUNT: tissue Blood; for ALANINE AMINOTRANSFERASE / ALBUMIN / ALKALINE PHOSPHATASE / ASPARTATE AMINOTRANSFERASE / BLOOD UREA NITROGEN / CARBON DIOXIDE / CHLORIDE / CHOLESTEROL / CREATININE / GLUCOSE / LACTATE DEHYDROGENASE / LIPASE / PHOSPHORUS / SODIUM / TOTAL BILIRUBIN / TOTAL PROTEIN / URIC ACID: tissue Plasma
# [1] = 23 mg/kg, 120 h, dose level High, time 5 day
# [2] = […], 72 h, dose 2.5 mg/Kg, dose level Low, time 3 day
# [3] = […], 120 h, dose 2.5 mg/Kg, dose level Low, time 5 day
structure (smiles),measurement,setting,value
Cc1cc2c(s1)Nc1ccccc1N=C2N1CCN(C)CC1 [OLANZAPINE],ABSOLUTE BASOPHIL,[1],0 CELLS/uL
same,ABSOLUTE EOSINOPHIL,[1],52 CELLS/uL
same,ABSOLUTE LYMPHOCYTE,[1],13243.33 CELLS/uL
same,ABSOLUTE MONOCYTE,[1],98.33 CELLS/uL
same,ABSOLUTE SEGMENTED NEUTROPHIL,[1],1106.33 CELLS/uL
same,BASOPHIL,[1],0%
same,EOSINOPHIL,[1],0.33%
same,HEMATOCRIT,[1],38.23%
same,LEUKOCYTE COUNT,[1],14.5 x10E3/uL
same,LYMPHOCYTE,[1],91.33%
same,MEAN CORPUSCULAR HEMOGLOBIN,[1],24.67 pg
same,MEAN CORPUSCULAR HEMOGLOBIN CONCENTRATION,[1],39.5 G/DL
same,MEAN CORPUSCULAR VOLUME,[1],62.5 fL
same,MONOCYTE,[1],0.67%
same,NEUTROPHIL,[1],7.67%
same,NUCLEATED RED BLOOD CELLS,[1],0 /100WBC
same,PLATELET COUNT,[1],1008.67 x10E3/uL
same,ALANINE AMINOTRANSFERASE,[1],50 u/L
same,ALBUMIN,[1],4.4 G/DL
same,ALKALINE PHOSPHATASE,[1],282.67 u/L
same,ASPARTATE AMINOTRANSFERASE,[1],108.67 u/L
same,BLOOD UREA NITROGEN,[1],22.33 mg/dL
same,CARBON DIOXIDE,[1],27.33 mmol/L
same,CHLORIDE,[1],104.33 MEQ/L
same,CHOLESTEROL,[1],78.33 mg/dL
same,CREATININE,[1],0.26 mg/dL
same,GLUCOSE,[1],150.33 mg/dL
same,LACTATE DEHYDROGENASE,[1],306 u/L
same,LIPASE,[1],9.33 u/L
same,PHOSPHORUS,[1],11.63 mg/dL
same,SODIUM,[1],146.17 MEQ/L
same,TOTAL BILIRUBIN,[1],0.27 mg/dL
same,TOTAL PROTEIN,[1],6.1 G/DL
same,URIC ACID,[1],1.4 mg/dL
same,ABSOLUTE BASOPHIL,[2],0 CELLS/uL
same,ABSOLUTE EOSINOPHIL,[2],116 CELLS/uL
same,ABSOLUTE LYMPHOCYTE,[2],13788.67 CELLS/uL
same,ABSOLUTE MONOCYTE,[2],239.33 CELLS/uL
same,ABSOLUTE SEGMENTED NEUTROPHIL,[2],1189.33 CELLS/uL
same,BASOPHIL,[2],0%
same,EOSINOPHIL,[2],1%
same,HEMATOCRIT,[2],35.03%
same,LEUKOCYTE COUNT,[2],15.33 x10E3/uL
same,LYMPHOCYTE,[2],90%
same,MEAN CORPUSCULAR HEMOGLOBIN,[2],24.27 pg
same,MEAN CORPUSCULAR HEMOGLOBIN CONCENTRATION,[2],38.63 G/DL
same,MEAN CORPUSCULAR VOLUME,[2],62.87 fL
same,MONOCYTE,[2],1.67%
same,NEUTROPHIL,[2],7.33%
same,NUCLEATED RED BLOOD CELLS,[2],0 /100WBC
same,PLATELET COUNT,[2],1228.33 x10E3/uL
same,ALANINE AMINOTRANSFERASE,[2],53.33 u/L
same,ALBUMIN,[2],4.17 G/DL
same,ALKALINE PHOSPHATASE,[2],352.67 u/L
same,ASPARTATE AMINOTRANSFERASE,[2],94.33 u/L
same,BLOOD UREA NITROGEN,[2],18 mg/dL
same,CARBON DIOXIDE,[2],26.67 mmol/L
same,CHLORIDE,[2],101 MEQ/L
same,CHOLESTEROL,[2],73.67 mg/dL
same,CREATININE,[2],0.19 mg/dL
same,GLUCOSE,[2],159.67 mg/dL
same,LACTATE DEHYDROGENASE,[2],472.67 u/L
same,LIPASE,[2],10.33 u/L
same,PHOSPHORUS,[2],12.4 mg/dL
same,SODIUM,[2],143.67 MEQ/L
same,TOTAL BILIRUBIN,[2],0.23 mg/dL
same,TOTAL PROTEIN,[2],5.97 G/DL
same,URIC ACID,[2],1.73 mg/dL
same,ABSOLUTE BASOPHIL,[3],0 CELLS/uL
same,ABSOLUTE EOSINOPHIL,[3],0 CELLS/uL
same,ABSOLUTE LYMPHOCYTE,[3],12300.67 CELLS/uL
same,ABSOLUTE MONOCYTE,[3],35.33 CELLS/uL
same,ABSOLUTE SEGMENTED NEUTROPHIL,[3],2030.67 CELLS/uL
same,BASOPHIL,[3],0%
same,EOSINOPHIL,[3],0%
same,HEMATOCRIT,[3],34.77%
same,LEUKOCYTE COUNT,[3],14.37 x10E3/uL
same,LYMPHOCYTE,[3],84.67%
same,MEAN CORPUSCULAR HEMOGLOBIN,[3],25.5 pg
same,MEAN CORPUSCULAR HEMOGLOBIN CONCENTRATION,[3],40.57 G/DL
same,MEAN CORPUSCULAR VOLUME,[3],62.8 fL
same,MONOCYTE,[3],0.33%
same,NEUTROPHIL,[3],15%
same,NUCLEATED RED BLOOD CELLS,[3],0 /100WBC
same,PLATELET COUNT,[3],1181 x10E3/uL
same,ALANINE AMINOTRANSFERASE,[3],50.67 u/L
same,ALBUMIN,[3],4.2 G/DL
same,ALKALINE PHOSPHATASE,[3],327.67 u/L
same,ASPARTATE AMINOTRANSFERASE,[3],96.67 u/L
same,BLOOD UREA NITROGEN,[3],18.67 mg/dL
same,CARBON DIOXIDE,[3],24.67 mmol/L
same,CHLORIDE,[3],101 MEQ/L
same,CHOLESTEROL,[3],82 mg/dL
same,CREATININE,[3],0.23 mg/dL
same,GLUCOSE,[3],160.67 mg/dL
same,LACTATE DEHYDROGENASE,[3],448.33 u/L
same,LIPASE,[3],9.67 u/L
same,PHOSPHORUS,[3],12.83 mg/dL
same,SODIUM,[3],144.87 MEQ/L
same,TOTAL BILIRUBIN,[3],0.27 mg/dL
same,TOTAL PROTEIN,[3],5.9 G/DL
same,URIC ACID,[3],1.7 mg/dL
